From US11169156B2, “Long wavelength voltage sensitive dyes” (The Regents of the University of California, priority 2015, dated 2021)
“Also recorded” adds a separate entry of the source.

Assays:
[1] = In vitro cross excitation in aqueous buffer (emission scans with differing excitation wavelengths); assay type: physicochemical; conditions: emission 680 nm
Method: FIG. 12A-C provides for in vitro cross excitation of BeRST 1 and BR. Emission scans of (A) BeRST 1 and (B) BR in aqueous buffer (50 mM TBS, pH 7.5, 0.1% SDS) with differing excitation wavelengths. (C) Relative fluorescence emission intensity at 680 nm vs. excitation wavelength for BeRST 1 (black bars) and BR (grey bars).
Stock solutions of BR and BeRST 1 were prepared in DMSO (1.0-10 mM) and diluted with TBS (50 mM Tris-HCl, pH 7.5, 0.15 M NaCl) solution containing 0.10% (w/w) SDS (1:100 to 1:1000 dilution). UV-Vis absorbance and fluorescence spectra were recorded using a Shimadzu 2501 Spectrophotometer (Shimadzu) and a Quantamaster Master 4 L-format scanning spectrofluorometer (Photon Technologies International). The fluorometer is equipped with an LPS-220B 75-W xenon lamp and power supply, A-1010B lamp housing with integrated igniter, switchable 814 photon-counting/analog photomultiplier detection unit, and MD5020 motor driver. Samples were measured in 1-cm path length quartz cuvettes (Starna Cells). Relative quantum yields were measured in TBS solution containing 0.10% (w/w) SDS or in CH3OH and referenced to cresyl violet in CH3OH, which has a quantum yield of 0.54.

[2] = Spectroscopic studies (absorbance, emission, quantum yield) in vitro; assay type: physicochemical; conditions: for quantum yield (Φfl): referenced to cresyl violet; for emission maximum: aqueous buffer
[3] = test system: rat hippocampal neurons; test: Action potential imaging in patch-clamped (current clamp) hippocampal neurons; assay type: cell-based; conditions: 1.8 kHz optical sampling, n=7 cells
Method: Hippocampi were dissected from embryonic day 18 Sprague Dawley rats (Charles River Laboratory) in cold sterile HBSS (zero Ca^2+, zero Mg^2+). All dissection products were supplied by Invitrogen, unless otherwise stated. Hippocampal tissue was treated with trypsin (2.5%) for 15 min at 37° C. The tissue was triturated using fire polished Pasteur pipettes, in minimum essential media (MEM) supplemented with 5% fetal bovine serum (FBS; Thermo Scientific), 2% B-27, 2% 1M D-glucose (Fisher Scientific) and 1% glutamax. […]
Analysis of voltage sensitivity in HEK cells was performed using custom Matlab routines. Briefly, a region of interest (ROI) was selected automatically based on fluorescence intensity and applied as a mask to all image frames. Fluorescence intensity values were calculated at known baseline and voltage step epochs. For analysis of BeRST 1 voltage responses in neurons, regions of interest encompassing cell bodies were drawn in ImageJ and the mean fluorescence intensity for each frame extracted. The photostability of BeRST 1 allowed for the calculation of ΔF/F values by subtracting a mean background value from all raw fluorescence frames, bypassing the noise amplification which arises from subtracting background for each frame. […] For cross-excitation quantification images were background subtracted. […] Mean intensity values for stained neurons were calculated. […]

[4] = test system: rat hippocampal neurons; test: Effect of dye loading on action potential firing, whole-cell patch clamp without imaging; assay type: cell-based; conditions: neurons with or without 1 μM dye, n=12 and 11
Method: To test if loading of BeRST 1 onto the membrane of neurons has any effect on their action potential firing, ten 500 ms current steps were injected into neurons, in increments of […]. The first action potential from each sweep was analyzed in Clampfit 10 software (Molecular Devices) to give amplitude and kinetic data. The cell capacitance determined by the Clampex software during recording. To evoke single action potentials for electrophysiological and imaging comparisons, short (10 ms) current injections were applied which were 2× the threshold required to evoke a single action potential. Analysis of action potentials was performed using spike detection algorithms in the Clampfit 10 software.

[5] = test system: HEK cells; test: Voltage sensitivity in HEK cells, whole-cell voltage clamp with fluorescence imaging; assay type: cell-based, Human; conditions: for voltage sensitivity, fractional change in fluorescence: 680 nm emission, n=4 cells
Method: Functional imaging of BeRST 1 was performed using a 20× objective paired with image capture from the EMCCD camera at a sampling rate of 0.5 kHz. BeRST 1 was excited using the 633 nm LED with an intensity of 6.7 W/cm^2. For initial voltage characterization (see, FIG. 4) emission was collection with the QUAD filter and dichroic (see above). For investigation into voltage sensitivity during excitation cross-talk (see, FIG. 11) BeRST 1 was excited by a 633 nm LED as above and 390 nm light (violet LED, 20 nm bandpass) with an intensity of 3.3 W/cm^2 and emission was collected with a 680/10 nm bandpass emission filter.
Analysis of voltage sensitivity in HEK cells was performed using custom Matlab routines. Briefly, a region of interest (ROI) was selected automatically based on fluorescence intensity and applied as a mask to all image frames. Fluorescence intensity values were calculated at known baseline and voltage step epochs. For analysis of BeRST 1 voltage responses in neurons, regions of interest encompassing cell bodies were drawn in ImageJ and the mean fluorescence intensity for each frame extracted. The photostability of BeRST 1 allowed for the calculation of ΔF/F values by subtracting a mean background value from all raw fluorescence frames, bypassing the noise amplification which arises from subtracting background for each frame. All example traces were not averaged. For comparisons of action potentials recorded electrophysiologically and optically, imaging traces were analyzed using spike detection algorithms in the Clampfit 10 software (Molecular Devices). For cross-excitation quantification images were background subtracted. ROIs were made by thresholding to the 25% of the maximum pixel intensity to remove non-stained areas. Mean intensity values for stained neurons were calculated.
For whole-cell, voltage clamp recordings in HEK 293T cells were held at −60 mV and 100 ms hyper- and de-polarizing steps applied from −100 to +100 mV in 20 mV increments.

[6] = test system: rat hippocampal neurons; test: Imaging of action potentials evoked by extracellular field stimulation in hippocampal neurons; assay type: cell-based
Method: Hippocampi were dissected from embryonic day 18 Sprague Dawley rats (Charles River Laboratory) in cold sterile HBSS (zero Ca^2+, zero Mg^2+). All dissection products were supplied by Invitrogen, unless otherwise stated. Hippocampal tissue was treated with trypsin (2.5%) for 15 min at 37° C. The tissue was triturated using fire polished Pasteur pipettes, in minimum essential media (MEM) supplemented with 5% fetal bovine serum (FBS; Thermo Scientific), 2% B-27, 2% 1M D-glucose (Fisher Scientific) and 1% glutamax. The dissociated cells were plated onto 12 mm diameter coverslips (Fisher Scientific) pre-treated with PDL (as above) at a density of 30,000-40,000 cells per coverslip in MEM supplemented media (as above). Neurons were maintained at 37° C. in a humidified incubator with 5% CO2. At 3 days in vitro (DIV) half of the MEM supplemented media was removed and replaced with Neurobasal media containing 2% B-27 supplement and 1% glutamax. Transfection of genetic tools was carried out using Lipofectamine 3000 at 7 DIV. Functional imaging was performed on mature neurons 13-20 DIV, except electrophysiological experiments which were performed on 12-15 DIV neurons.
Extracellular field stimulation was delivered by Grass Stimulator connected to a recording chamber containing two platinum electrodes (Warner), with triggering provided through a Digidata 1332A digitizer and pCLAMP 10 software (Molecular Devices). Action potentials were triggered by 1 ms 80 V field potentials delivered at 5 Hz. To prevent recurrent activity the HBS bath solution was supplemented with synaptic blockers 10 μM 2,3-Dioxo-6-nitro-1,2,3, 4-tetrahydrobenzo[f]quinoxaline-7-sulfonamide (NBQX; Santa Cruz Biotechnology) and 25 μM DL-2-Amino-5-phosphonopentanoic acid (APV; Sigma-Aldrich). Functional imaging of BeRST 1 was performed using the EMCCD camera and a 63× objective. BeRST 1 was excited with a 631 nm light (LED; 631 nm, 28 nm bandpass) with an intensity of 127 W/cm^2. Emission from BeRST 1 was collected with a 680/10 nm bandpass emission filter (after passing through a quadruple dichroic mirror (432/38 nm, 509/22 nm, 586/40 nm, 654 nm LP) or for GCaMP6s and ASAP experiments a QUAD filter (quadruple emission filter (430/32 nm, 508/14 nm, 586/30 nm, 708/98 nm) after passing through the quadruple dichroic mirror. Optical sampling rate of BeRST 1 imaging was 0.5-0.53 kHz, except when imaging with ASAP1 (1.25 kHz). Green spectrum genetic tools (GFP, GCaMP6s and ASAP1) were illuminated using 475 nm light (LED; 475 nm, 34 nm bandpass). For functional imaging an intensity of 33 W/cm^2 for GCaMP6s and 200 W/cm^2 for the more weakly fluorescent ASAP1 was used, which is the maximum 475 nm LED intensity for the system. Emission was collected with a 540/50 nm bandpass filter after passing through a 510 nm longpass dichroic. Functional imaging of GCaMP6s and ASAP was performed at 40 Hz and 1.25 kHz, respectively. Images showing cellular morphology were performed by switching to a lower magnification 20× objective in conjunction with either the EMCCD (GCaMP6s/ASAP1) or sCMOS (GFP) camera.
Analysis of voltage sensitivity in HEK cells was performed using custom Matlab routines. Briefly, a region of interest (ROI) was selected automatically based on fluorescence intensity and applied as a mask to all image frames. Fluorescence intensity values were calculated at known baseline and voltage step epochs. For analysis of BeRST 1 voltage responses in neurons, regions of interest encompassing cell bodies were drawn in ImageJ and the mean fluorescence intensity for each frame extracted. The photostability of BeRST 1 allowed for the calculation of ΔF/F values by subtracting a mean background value from all raw fluorescence frames, bypassing the noise amplification which arises from subtracting background for each frame. All example traces were not averaged. […]

[7] = in CH3OH; cited from earlier work
[8] = aqueous buffer (50 mM TBS, pH 7.5, 0.1% SDS)

Compound: CN(C)c1ccc2c(c1)[Si](C)(C)C1=CC(=[N+](C)C)C=CC1=C2c1ccccc1S(=O)(=O)[O-] [BR, 2-(7-(Dimethylamino)-3-(dimethyliminio)-5,5-dimethyl-3,5-dihydrodibenzo[b,e]silin-10-yl) benzenesulfonate]
- emission with 390 nm excitation, share of full emission [1]: 16%
- emission with 475 nm excitation compared to excitation at 630 nm [1]: approximately 1%
- quantum yield (Φfl) ([2]; TBS/SDS aqueous buffer): 0.24
- emission maximum [2]: 681 nm
- absorbance / excitation centered at [2, 8]: 658 nm
- extinction coefficient [2, 8]: 150,000 M^−1 cm^−1
- quantum yield (Φfl) ([2]; methanol): 0.32
- change in absorbance with pH (spirocyclization) ([2]; pH 2.5 to 9): no change in absorbance
- absorbance vs. solvent dielectric constant (solvatochromism) ([2]; ε=6 (10% water/dioxane v/v) to ε=71 (90% water/dioxane v/v)): remains unchanged

Compound: COc1cc(N(C)C)ccc1/C=C/c1ccc(/C=C/c2ccc(C3=C4C=CC(=[N+](C)C)C=C4[Si](C)(C)c4cc(N(C)C)ccc43)c(S(=O)(=O)[O-])c2)cc1 [BeRST 1, 5-((E)-4-((E)-4-(Dimethylamino)-2-methoxystyryl)styryl)-2-(7-(dimethylamino)-3-(dimethyliminio)-5,5-dimethyl-3,5-dihydrodibenzo[b,e]silin-10-yl)benzenesulfonate]
- FWHM duration of action potentials, optical record ([3]; electrophysiological record 1.65±0.15 ms): 1.97 ± 0.14 ms
- optical response for action potentials ([3]; current clamp evoked action potentials): approximately 9.5 % ΔF/F
- effect on action potential amplitude, duration, rise time, decay time, cellular capacitance [4]: No difference; also recorded: No statistically significant differences
- emission with 390 nm excitation, share of full emission [1]: 35%
- emission with 475 nm excitation compared to excitation at 630 nm [1]: ~7%
- voltage sensitivity ([5]; HEK cells loaded with 1 μM dye, whole-cell voltage clamp, n=15 cells): approximately 24%±5%
- voltage sensitivity, fractional change in fluorescence ([5]; excited at 390 nm (3.3 W/cm^2)): 28 % ΔF/F per 100 mV
- voltage sensitivity, fractional change in fluorescence ([5]; excited at 631 nm (6.7 W/cm^2)): 26 % ΔF/F per 100 mV
- linearity of fluorescence response to membrane potential ([5]; range spanning ±100 mV): linear
- quantum yield (Φfl) ([2]; TBS/SDS aqueous buffer): 0.017
- emission maximum [2]: 683 nm
- absorbance / excitation centered at [2, 8]: 658 nm
- extinction coefficient at the incident irradiation ([2]; at incident irradiation (631 nm BeRST 1, 475 nm VF2.1.Cl)): 150,000
- quantum yield (Φfl) ([2]; methanol): 0.022
- change in fluorescence per action potential ([6]; field stimulation, GFP-expressing cells, n=5 pairs of cells): 8.7±0.8 % ΔF/F
- change in fluorescence per action potential ([6]; field stimulation, cells not expressing GFP): approximately 9.2 % ΔF/F
- optical response for action potentials ([6]; field stimulation, n=5 cells): 17.8 % ΔF/F
- voltage transient for a single evoked action potential ([6]; neuron expressing GCaMP6s and stained with BeRST 1): approximately 15 % ΔF/F
- increase in relative fluorescence to evoked train of action potentials ([6]; neurons expressing ASAP1 and stained with BeRST 1, S.E.M., n=4 cells): 15%±2.1%
- resolution of individually evoked action potentials in trains ([6]; trains at 5, 10 and 20 Hz): visible in the BeRST 1 channel at all frequencies

Compound: cresyl violet
- quantum yield of reference standard [7]: 0.54
